Where two headings read alike, the source gives them in different places.

From patent publication US6951843B2, “Peptide derivatives and their pharmaceutically acceptable salts, thereof, processes for preparation of both and use thereof” (priority 2000, dated 2005) come the findings set out here.

The subject of one series is Arg-gingipain (RGP). As to the kind of experiment: Inhibitory activity against Arg-gingipain (RGP), substrate Z-Phe-Arg-MCA, for comparison. To be noted: compound concentration 10^−6 mol/l. The format is biochemical, Porphyromonas gingivalis. As to the method: Enzyme inhibitory activity (%)=[1−(F/F0)]×100
The inhibitory activity against Arg-gingipain (hereinafter referred to as “RGP”) was measured for comparison in a manner similar to the above, by the process described in Journal Biological Chemistry, Vol. 269, 21371-21378 (1994) using Z-Phe-Arg-MCA as a substrate.

The next series deals with Lys-gingipain (KGP) (Porphyromonas gingivalis, UniProt B2RLK2). As to the method:
Measurement of Inhibitory Activity Against KGP
The inhibitory activity against Lys-gingipain (KGP) was measured by the method described in Journal Biochemistry, Vol. 123, 305-312 (1998), using Z-His-Glu-Lys-MCA as a substrate. Specifically, the measurement was carried out in the following manner: 100 μl of 50 mM L-cystein, 200 μl of a 0.1 M sodium phosphate buffer solution (pH 7.5), 20 μl of 12.3 nM KGP solution containing 0.05% “Brij35” (a tradename of Aldrich, polyoxyethylene(23) lauryl ether), 80 μl of distilled water and 100 μl of a dimethyl sulfoxide solution of a compound according to the invention were mixed together, and preincubated at 37° C. for 5 minutes. Thereafter, 500 μl of a 0.1% dimethyl sulfoxide solution containing 20 μM Z-His-Glu-Lys-MCA was added, followed by incubation at 40° C. for 10 minutes. Then, an acetic acid buffer solution (pH 5.0) containing 10 mM iodoacetamide was added to stop the enzyme reaction, and the fluorescence intensity (F) at 460 nm excited at 380 nm was measured. […] The enzyme inhibitory activity (%) was calculated by the following equation. Enzyme inhibitory activity (%)=[1−(F/F0)]×100

The mark [1] stands for this setting: compound concentration 10^−6 mol/l.
The mark [2] stands for this setting: compound concentration 10^−9 mol/l.

`COC(=O)C(O)[C@H](CCCCNC(=O)OC(C)(C)C)NC(=O)[C@H](CCC(=O)OC(C)(C)C)NC(=O)OCc1ccccc1` (stereo partly drawn): the melting point (usually the temperature of the solid-liquid transition) lay in the range of 101 to 103 °C. Consider `CC(C)(C)OC(=O)CC[C@H](NC(=O)OCc1ccccc1)C(=O)N[C@@H](CCCCNC(=O)OC(C)(C)C)C(O)C(=O)NCCc1ccccc1` (stereo partly drawn), for which the melting point lay in the range of 82 to 85 °C. The same measure, in the same setting: then `CC(C)(C)OC(=O)NCCCC[C@H](NC(=O)[C@H](CCC(N)=O)NC(=O)OCc1ccccc1)C(O)C(=O)NCc1ccccc1` (stereo partly drawn), with 138 to 141 °C. Still for that read-out and setting: then `CNC(=O)CC[C@H](NC(=O)OCc1ccccc1)C(=O)N[C@@H](CCCCNC(=O)OC(C)(C)C)C(O)C(=O)NCc1ccccc1` (stereo partly drawn), with 147 to 149 °C; and `CC(C)(C)OC(=O)NCCCC[C@H](NC(=O)[C@H](CCC(=O)NCCNC(=O)OC(C)(C)C)NC(=O)OCc1ccccc1)C(O)C(=O)NCc1ccccc1` (stereo partly drawn), with 170 to 172 °C; and `CN(C)NC(=O)CC[C@H](NC(=O)OCc1ccccc1)C(=O)N[C@@H](CCCCNC(=O)OC(C)(C)C)C(O)C(=O)NCc1ccccc1` (stereo partly drawn), with 123 to 125 °C. As for `CN(NC(=O)CC[C@H](NC(=O)OCc1ccccc1)C(=O)N[C@@H](CCCCNC(=O)OC(C)(C)C)C(O)C(=O)NCc1ccccc1)c1ccccc1` (stereo partly drawn), the melting point fell in the range of 170 to 173 °C. In turn, `CN(C)C(=O)[C@H](Cc1ccccc1)NC(=O)C(=O)[C@H](CCCCNC(=O)OC(C)(C)C)NC(=O)[C@H](CCC(=O)OC(C)(C)C)NC(=O)OCc1ccccc1` yielded a melting point of 102 to 104 °C. The compound `CC(C)C[C@H](NC(=O)C(=O)[C@H](CCCCNC(=O)OC(C)(C)C)NC(=O)[C@H](CCC(=O)OC(C)(C)C)NC(=O)OCc1ccccc1)C(=O)N(C)C` came in with a melting point of 119 to 122 °C. Still for that read-out and setting: then `CC(C)(C)OC(=O)CC[C@H](NC(=O)OCc1ccccc1)C(=O)N[C@@H](CCCCNC(=O)OC(C)(C)C)C(O)C(=O)O` (stereo partly drawn), with 48 to 50 °C; and `CN(C)C(=O)[C@H](CCC(=O)OC(C)(C)C)NC(=O)C(=O)[C@H](CCCCNC(=O)OC(C)(C)C)NC(=O)[C@H](CCC(=O)OC(C)(C)C)NC(=O)OCc1ccccc1`, with 127 to 130 °C. Turning to `CN(C)C(=O)[C@H](CC(N)=O)NC(=O)C(=O)[C@H](CCCCNC(=O)OC(C)(C)C)NC(=O)[C@H](CCC(=O)OC(C)(C)C)NC(=O)OCc1ccccc1`, the melting point was in the range of 122 to 124 °C. The same measure, in the same setting: then `CN(C)C(=O)[C@H](CCCCNC(=O)OC(C)(C)C)NC(=O)C(=O)[C@H](CCCCNC(=O)OC(C)(C)C)NC(=O)[C@H](CCC(=O)OC(C)(C)C)NC(=O)OCc1ccccc1`, with 152 to 155 °C; and `CCCNC(=O)C(=O)[C@H](CCCCNC(=O)OC(C)(C)C)NC(=O)[C@H](CCC(=O)OC(C)(C)C)NC(=O)OCc1ccccc1`, with 131 to 133 °C. `CC(C)(C)OC(=O)CC[C@H](NC(=O)OCc1ccccc1)C(=O)N[C@@H](CCCCNC(=O)OC(C)(C)C)C(=O)C(=O)NCc1ccccc1` showed a melting point of 130 to 132 °C. On the same count and under the same terms, the value for `CC(C)(C)OC(=O)CC[C@H](NC(=O)OCc1ccccc1)C(=O)N[C@@H](CCCCNC(=O)OC(C)(C)C)C(=O)C(=O)NCCc1ccccc1` was 148 to 150 °C; that for `CC(C)(C)OC(=O)NCCCC[C@H](NC(=O)[C@H](CCC(N)=O)NC(=O)OCc1ccccc1)C(=O)C(=O)NCc1ccccc1` was 193 to 195 °C; that for `CNC(=O)CC[C@H](NC(=O)OCc1ccccc1)C(=O)N[C@@H](CCCCNC(=O)OC(C)(C)C)C(=O)C(=O)NCc1ccccc1` was 189 to 192 °C. Consider `CC(C)(C)OC(=O)NCCCC[C@H](NC(=O)[C@H](CCC(=O)NCCNC(=O)OC(C)(C)C)NC(=O)OCc1ccccc1)C(=O)C(=O)NCc1ccccc1`, for which the melting point was in the range of 157 to 159 °C. Consider `CN(NC(=O)CC[C@H](NC(=O)OCc1ccccc1)C(=O)N[C@@H](CCCCNC(=O)OC(C)(C)C)C(=O)C(=O)NCc1ccccc1)c1ccccc1`, for which the melting point was 147 to 150 °C.

`CN(C)C(=O)[C@H](CC(N)=O)NC(=O)C(O)[C@H](CCCCNC(=O)OC(C)(C)C)NC(=O)[C@H](CCC(=O)OC(C)(C)C)NC(=O)OCc1ccccc1` (stereo partly drawn) had a melting point of 88 to 91 °C. `CCCNC(=O)C(O)[C@H](CCCCNC(=O)OC(C)(C)C)NC(=O)[C@H](CCC(=O)OC(C)(C)C)NC(=O)OCc1ccccc1` (stereo partly drawn): the melting point fell in the range of 73 to 75 °C.

Compound `CN(C)C(=O)[C@H](Cc1ccccc1)NC(=O)C(O)[C@H](CCCCNC(=O)OC(C)(C)C)NC(=O)[C@H](CCC(=O)OC(C)(C)C)NC(=O)OCc1ccccc1` (single isomer, unassigned) yielded a melting point of 132 to 134 °C. `CC(C)(C)OC(=O)CC[C@H](NC(=O)OCc1ccccc1)C(=O)N[C@@H](CCCCNC(=O)OC(C)(C)C)C(O)C(=O)Nc1ccccc1` (single isomer, unassigned) registered a melting point of 146 to 147 °C. For `CN(C)C(=O)[C@H](Cc1ccccc1)NC(=O)C(=O)[C@H](CCCCN)NC(=O)[C@H](CCC(=O)O)NC(=O)OCc1ccccc1.Cl` [Example 34], the “Enzyme inhibitory activity (%) RGP” value with Arg-gingipain (RGP) is on record as 5.7%. Also, the results for the “Enzyme inhibitory activity (%) KGP” value on Lys-gingipain (KGP) (setting [1]) and on Lys-gingipain (KGP) (setting [2]) were 99.7% and 40.6%, respectively. Take `CC(C)C[C@H](NC(=O)C(=O)[C@H](CCCCN)NC(=O)[C@H](CCC(=O)O)NC(=O)OCc1ccccc1)C(=O)N(C)C.Cl` [Example 35]: the “Enzyme inhibitory activity (%) RGP” value with Arg-gingipain (RGP) came to 3.7%. Moreover, the entries for the “Enzyme inhibitory activity (%) KGP” value at Lys-gingipain (KGP) (setting [1]) and on Lys-gingipain (KGP) (setting [2]) were 99.9% and 50.6%, respectively. For `CN(C)C(=O)[C@H](CCC(=O)O)NC(=O)C(=O)[C@H](CCCCN)NC(=O)[C@H](CCC(=O)O)NC(=O)OCc1ccccc1.Cl` [Example 36] the same measures were 0.0%, 98.6% and 38.4%. For `CN(C)C(=O)[C@H](CC(N)=O)NC(=O)C(=O)[C@H](CCCCN)NC(=O)[C@H](CCC(=O)O)NC(=O)OCc1ccccc1.Cl` [Example 37] the same measures were 8.5%, 99.9% and 59.6%.

With `CCCNC(=O)C(=O)[C@H](CCCCN)NC(=O)[C@H](CCC(=O)O)NC(=O)OCc1ccccc1.Cl` [Example 39], the “Enzyme inhibitory activity (%) RGP” value with Arg-gingipain (RGP) is recorded as 0.0%. Besides, the “Enzyme inhibitory activity (%) KGP” value at Lys-gingipain (KGP) (setting [1]) is recorded as 99.6%; at Lys-gingipain (KGP) (setting [2]) it was 71.9%. Turning to `Cl.NCCCC[C@H](NC(=O)[C@H](CCC(=O)O)NC(=O)OCc1ccccc1)C(=O)C(=O)Nc1ccccc1` [Example 40], the “Enzyme inhibitory activity (%) RGP” value with Arg-gingipain (RGP) is given as 0.0%. For the same compound, the “Enzyme inhibitory activity (%) KGP” value was 99.6% at Lys-gingipain (KGP) (setting [1]) and 71.3% on Lys-gingipain (KGP) (setting [2]). For the compound `Cl.NCCCC[C@H](NC(=O)[C@H](CCC(=O)O)NC(=O)OCc1ccccc1)C(=O)C(=O)NCc1ccccc1` [Example 41], the “Enzyme inhibitory activity (%) RGP” value with Arg-gingipain (RGP) came out at 4.0%. In addition, the results for the “Enzyme inhibitory activity (%) KGP” value at Lys-gingipain (KGP) (setting [1]) and at Lys-gingipain (KGP) (setting [2]) were 99.7% and 81.8%, respectively. With `Cl.NCCCC[C@H](NC(=O)[C@H](CCC(=O)O)NC(=O)OCc1ccccc1)C(=O)C(=O)NCCc1ccccc1` [Example 42], the “Enzyme inhibitory activity (%) RGP” value with Arg-gingipain (RGP) was 7.7%. Moreover, the “Enzyme inhibitory activity (%) KGP” value on Lys-gingipain (KGP) (setting [1]) turned out to be 98.0%; at Lys-gingipain (KGP) (setting [2]), 67.0%. On to `Cl.NCCCC[C@H](NC(=O)[C@H](CCC(N)=O)NC(=O)OCc1ccccc1)C(=O)C(=O)NCc1ccccc1` [Example 43], for which the “Enzyme inhibitory activity (%) RGP” value in the series on Arg-gingipain (RGP) is 9.0%. Moreover, the “Enzyme inhibitory activity (%) KGP” value worked out at 100.0% at Lys-gingipain (KGP) (setting [1]) and 93.8% at Lys-gingipain (KGP) (setting [2]).

On to `CNC(=O)CC[C@H](NC(=O)OCc1ccccc1)C(=O)N[C@@H](CCCCN)C(=O)C(=O)NCc1ccccc1.Cl` [Example 44], for which the “Enzyme inhibitory activity (%) RGP” value with Arg-gingipain (RGP) is 1.9%. For the same compound, the “Enzyme inhibitory activity (%) KGP” value on Lys-gingipain (KGP) (setting [1]) is recorded as 100.0%; on Lys-gingipain (KGP) (setting [2]), 97.3%. Regarding `CN(C)C(=O)CC[C@H](NC(=O)OCc1ccccc1)C(=O)N[C@@H](CCCCN)C(=O)C(=O)NCc1ccccc1.Cl` [Example 45], the “Enzyme inhibitory activity (%) RGP” value with Arg-gingipain (RGP) is on record as 0.0%. Besides, the “Enzyme inhibitory activity (%) KGP” value on Lys-gingipain (KGP) (setting [1]) was determined as 100.0%; on Lys-gingipain (KGP) (setting [2]), 93.7%.

Consider `Cl.Cl.NCCCC[C@H](NC(=O)[C@H](CCC(=O)NCCN)NC(=O)OCc1ccccc1)C(=O)C(=O)NCc1ccccc1` [Example 46], for which the “Enzyme inhibitory activity (%) RGP” value in the series on Arg-gingipain (RGP) was 0.5%. Besides, the “Enzyme inhibitory activity (%) KGP” value on Lys-gingipain (KGP) (setting [1]) and on Lys-gingipain (KGP) (setting [2]) was 99.9% each time. Take `Cl.Cl.NCCCC[C@H](NC(=O)[C@H](CCC(=O)N1CCNCC1)NC(=O)OCc1ccccc1)C(=O)C(=O)NCc1ccccc1` [Example 47]: in the series on Arg-gingipain (RGP), the “Enzyme inhibitory activity (%) RGP” value is on record as 6.4%. Moreover, the “Enzyme inhibitory activity (%) KGP” value stood at 100.0% at Lys-gingipain (KGP) (setting [1]) and 98.5% at Lys-gingipain (KGP) (setting [2]). Take `CN(C)NC(=O)CC[C@H](NC(=O)OCc1ccccc1)C(=O)N[C@@H](CCCCN)C(=O)C(=O)NCc1ccccc1.Cl.Cl` [Example 48]: the “Enzyme inhibitory activity (%) RGP” value with Arg-gingipain (RGP) is on record as 4.1%. Further, the “Enzyme inhibitory activity (%) KGP” value at Lys-gingipain (KGP) (setting [1]) is given as 100.0%; on Lys-gingipain (KGP) (setting [2]), 98.2%.
